#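 All cell lines were grown in 96-well plates and treated with compound for 48 hours. At the TGI there is no net growth.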
# How the values were obtained:
# Assay in all cases: growth of human tumour cells (NCI), 48 h
# 786-0 renal = tested on: 786-0 renal
# A498 renal = tested on: A498 renal
# A549 NSCLC = tested on: A549 NSCLC
# ACHN renal = tested on: ACHN renal
# CAKI-1 renal = tested on: CAKI-1 renal
# CCRF-CEM leukemia = tested on: CCRF-CEM leukemia
# COLO 205 colon = tested on: COLO 205 colon
# DU-145 prostate = tested on: DU-145 prostate
# EKVX NSCLC = tested on: EKVX NSCLC
# HCC-2998 colon = tested on: HCC-2998 colon
# HCT-116 colon = tested on: HCT-116 colon
# HCT-15 colon = tested on: HCT-15 colon
# HL-60(TB) leukemia = tested on: HL-60(TB) leukemia
# HOP-62 NSCLC = tested on: HOP-62 NSCLC
# HS 578T breast = tested on: HS 578T breast
# HT29 colon = tested on: HT29 colon
# IGROV1 ovarian = tested on: IGROV1 ovarian
# KM12 colon = tested on: KM12 colon
# LOX IMVI melanoma = tested on: LOX IMVI melanoma
# M14 melanoma = tested on: M14 melanoma
# MALME-3M melanoma = tested on: MALME-3M melanoma
# MCF7 breast = tested on: MCF7 breast
# MDA-MB-231 breast = tested on: MDA-MB-231 breast
# MDA-MB-435 = tested on: MDA-MB-435
# MDA-N = tested on: MDA-N
# MOLT-4 leukemia = tested on: MOLT-4 leukemia
# NCI-H226 lung = tested on: NCI-H226 lung
# NCI-H23 lung = tested on: NCI-H23 lung
# NCI-H460 lung = tested on: NCI-H460 lung
# NCI-H522 lung = tested on: NCI-H522 lung
# NCI/ADR-RES ovarian = tested on: NCI/ADR-RES ovarian
# OVCAR-3 ovarian = tested on: OVCAR-3 ovarian
# OVCAR-4 ovarian = tested on: OVCAR-4 ovarian
# OVCAR-5 ovarian = tested on: OVCAR-5 ovarian
# OVCAR-8 ovarian = tested on: OVCAR-8 ovarian
# PC-3 prostate = tested on: PC-3 prostate
# RPMI-8226 leukemia = tested on: RPMI-8226 leukemia
# RXF 393 renal = tested on: RXF 393 renal
# SF-268 CNS = tested on: SF-268 CNS
# SF-295 CNS = tested on: SF-295 CNS
# SF-539 CNS = tested on: SF-539 CNS
# SK-MEL-2 melanoma = tested on: SK-MEL-2 melanoma
# SK-MEL-28 melanoma = tested on: SK-MEL-28 melanoma
# SK-MEL-5 melanoma = tested on: SK-MEL-5 melanoma
# SN12C renal = tested on: SN12C renal
# SNB-19 CNS = tested on: SNB-19 CNS
# SNB-75 CNS = tested on: SNB-75 CNS
# SR leukemia = tested on: SR leukemia
# SW-620 colon = tested on: SW-620 colon
# T-47D breast = tested on: T-47D breast
# TK-10 renal = tested on: TK-10 renal
# U251 CNS = tested on: U251 CNS
# UACC-257 melanoma = tested on: UACC-257 melanoma
# UACC-62 melanoma = tested on: UACC-62 melanoma
# UO-31 renal = tested on: UO-31 renal
# HOP-92 NSCLC = tested on: HOP-92 NSCLC
# K-562 leukemia = tested on: K-562 leukemia
# SK-OV-3 ovarian = tested on: SK-OV-3 ovarian
structure (smiles),measurement,setting,value
O=C(O)c1cc(-c2ccc3c(O)ccc(O)c3c2)ccc1O,TGI,786-0 renal,30.2 µM
same,TGI,A498 renal,32 µM
same,TGI,A549 NSCLC,> 100 µM
same,TGI,ACHN renal,33.4 µM
same,TGI,CAKI-1 renal,30.2 µM
same,TGI,CCRF-CEM leukemia,5.58 µM
same,TGI,COLO 205 colon,39.4 µM
same,TGI,DU-145 prostate,52.3 µM
same,TGI,EKVX NSCLC,34.7 µM
same,TGI,HCC-2998 colon,32.6 µM
same,TGI,HCT-116 colon,32.6 µM
same,TGI,HCT-15 colon,34.4 µM
same,TGI,HL-60(TB) leukemia,> 100 µM
same,TGI,HOP-62 NSCLC,98.9 µM
same,TGI,HS 578T breast,73.5 µM
same,TGI,HT29 colon,43.9 µM
same,TGI,IGROV1 ovarian,31.9 µM
same,TGI,KM12 colon,43.2 µM
same,TGI,LOX IMVI melanoma,29.8 µM
same,TGI,M14 melanoma,47.7 µM
same,TGI,MALME-3M melanoma,36.3 µM
same,TGI,MCF7 breast,39.6 µM
same,TGI,MDA-MB-231 breast,39.6 µM
same,TGI,MDA-MB-435,34.4 µM
same,TGI,MDA-N,31.6 µM
same,TGI,MOLT-4 leukemia,16.3 µM
same,TGI,NCI-H226 lung,44 µM
same,TGI,NCI-H23 lung,64.9 µM
same,TGI,NCI-H460 lung,48.5 µM
same,TGI,NCI-H522 lung,36.5 µM
same,TGI,NCI/ADR-RES ovarian,82.4 µM
same,TGI,OVCAR-3 ovarian,43.5 µM
same,TGI,OVCAR-4 ovarian,31.2 µM
same,TGI,OVCAR-5 ovarian,32.3 µM
same,TGI,OVCAR-8 ovarian,54.4 µM
same,TGI,PC-3 prostate,26.3 µM
same,TGI,RPMI-8226 leukemia,> 100 µM
same,TGI,RXF 393 renal,27.9 µM
same,TGI,SF-268 CNS,82.9 µM
same,TGI,SF-295 CNS,33.8 µM
same,TGI,SF-539 CNS,30.8 µM
same,TGI,SK-MEL-2 melanoma,34.3 µM
same,TGI,SK-MEL-28 melanoma,41.5 µM
same,TGI,SK-MEL-5 melanoma,28.2 µM
same,TGI,SN12C renal,31.6 µM
same,TGI,SNB-19 CNS,> 100 µM
same,TGI,SNB-75 CNS,60.1 µM
same,TGI,SR leukemia,> 100 µM
same,TGI,SW-620 colon,28.6 µM
same,TGI,T-47D breast,35.3 µM
same,TGI,TK-10 renal,35.6 µM
same,TGI,U251 CNS,41.3 µM
same,TGI,UACC-257 melanoma,33 µM
same,TGI,UACC-62 melanoma,33.8 µM
same,TGI,UO-31 renal,31.3 µM
CCC1=C(c2ccc(OC)cc2)CC[C@@]2(CCNC2=O)[C@@H]1C,TGI,786-0 renal,> 100 µM
same,TGI,A498 renal,> 100 µM
same,TGI,A549 NSCLC,> 100 µM
same,TGI,ACHN renal,> 100 µM
same,TGI,CAKI-1 renal,> 100 µM
same,TGI,CCRF-CEM leukemia,> 100 µM
same,TGI,COLO 205 colon,> 100 µM
same,TGI,DU-145 prostate,> 100 µM
same,TGI,EKVX NSCLC,> 100 µM
same,TGI,HCC-2998 colon,> 100 µM
same,TGI,HCT-116 colon,> 100 µM
same,TGI,HCT-15 colon,> 100 µM
same,TGI,HOP-62 NSCLC,> 100 µM
same,TGI,HOP-92 NSCLC,> 100 µM
same,TGI,HS 578T breast,> 89.5 µM
same,TGI,HT29 colon,> 100 µM
same,TGI,IGROV1 ovarian,> 100 µM
same,TGI,K-562 leukemia,> 95.9 µM
same,TGI,KM12 colon,> 100 µM
same,TGI,LOX IMVI melanoma,> 100 µM
same,TGI,M14 melanoma,> 100 µM
same,TGI,MALME-3M melanoma,> 100 µM
same,TGI,MCF7 breast,> 100 µM
same,TGI,MDA-MB-231 breast,> 100 µM
same,TGI,MDA-MB-435,> 100 µM
same,TGI,MDA-N,> 100 µM
same,TGI,MOLT-4 leukemia,> 90.3 µM
same,TGI,NCI-H226 lung,> 100 µM
same,TGI,NCI-H23 lung,> 100 µM
same,TGI,NCI-H460 lung,> 100 µM
same,TGI,NCI-H522 lung,> 100 µM
same,TGI,NCI/ADR-RES ovarian,> 100 µM
same,TGI,OVCAR-3 ovarian,> 100 µM
same,TGI,OVCAR-4 ovarian,> 100 µM
same,TGI,OVCAR-5 ovarian,> 100 µM
same,TGI,OVCAR-8 ovarian,> 100 µM
same,TGI,PC-3 prostate,> 100 µM
same,TGI,RPMI-8226 leukemia,> 100 µM
same,TGI,SF-268 CNS,> 100 µM
same,TGI,SF-295 CNS,> 100 µM
same,TGI,SF-539 CNS,> 100 µM
same,TGI,SK-MEL-2 melanoma,> 100 µM
same,TGI,SK-MEL-28 melanoma,> 100 µM
same,TGI,SK-MEL-5 melanoma,58.7 µM
same,TGI,SK-OV-3 ovarian,> 100 µM
same,TGI,SN12C renal,> 100 µM
same,TGI,SNB-19 CNS,> 100 µM
same,TGI,SNB-75 CNS,> 100 µM
same,TGI,SR leukemia,> 100 µM
same,TGI,SW-620 colon,> 100 µM
same,TGI,T-47D breast,> 100 µM
same,TGI,TK-10 renal,> 100 µM
same,TGI,U251 CNS,> 100 µM
same,TGI,UACC-257 melanoma,> 100 µM
same,TGI,UACC-62 melanoma,> 100 µM
same,TGI,UO-31 renal,> 100 µM
CC1=NN(c2nc(N)nc(/C(C#N)=C\C3COc4ccccc4C3=O)n2)C(C)(C)C1 (configuration not stated),TGI,786-0 renal,> 100 µM
same,TGI,A498 renal,63 µM
same,TGI,ACHN renal,93.7 µM
same,TGI,CAKI-1 renal,> 100 µM
same,TGI,CCRF-CEM leukemia,> 100 µM
same,TGI,DU-145 prostate,> 100 µM
same,TGI,EKVX NSCLC,> 100 µM
same,TGI,HCC-2998 colon,> 100 µM
same,TGI,HCT-116 colon,75 µM
same,TGI,HCT-15 colon,> 100 µM
same,TGI,HL-60(TB) leukemia,5.2 µM
same,TGI,HOP-62 NSCLC,> 100 µM
same,TGI,HOP-92 NSCLC,> 100 µM
same,TGI,HS 578T breast,85 µM
same,TGI,HT29 colon,69 µM
same,TGI,IGROV1 ovarian,> 100 µM
same,TGI,K-562 leukemia,> 100 µM
same,TGI,KM12 colon,> 100 µM
same,TGI,LOX IMVI melanoma,> 100 µM
same,TGI,M14 melanoma,> 100 µM
same,TGI,MCF7 breast,> 100 µM
same,TGI,MDA-MB-231 breast,> 100 µM
same,TGI,MDA-MB-435,> 100 µM
same,TGI,MDA-N,84.6 µM
same,TGI,MOLT-4 leukemia,64 µM
same,TGI,NCI-H226 lung,> 100 µM
same,TGI,NCI-H23 lung,90.5 µM
same,TGI,NCI-H460 lung,> 100 µM
same,TGI,NCI-H522 lung,> 100 µM
same,TGI,NCI/ADR-RES ovarian,35.9 µM
same,TGI,OVCAR-3 ovarian,> 100 µM
same,TGI,OVCAR-4 ovarian,> 100 µM
same,TGI,OVCAR-5 ovarian,> 100 µM
same,TGI,OVCAR-8 ovarian,> 100 µM
same,TGI,PC-3 prostate,77.7 µM
same,TGI,RPMI-8226 leukemia,54.8 µM
same,TGI,RXF 393 renal,64.4 µM
same,TGI,SF-268 CNS,> 100 µM
same,TGI,SF-295 CNS,> 100 µM
same,TGI,SF-539 CNS,> 100 µM
same,TGI,SK-MEL-2 melanoma,42.3 µM
same,TGI,SK-MEL-28 melanoma,> 100 µM
same,TGI,SK-MEL-5 melanoma,> 100 µM
same,TGI,SK-OV-3 ovarian,84.7 µM
same,TGI,SR leukemia,46.1 µM
same,TGI,SW-620 colon,> 100 µM
same,TGI,T-47D breast,69.1 µM
same,TGI,TK-10 renal,> 100 µM
same,TGI,U251 CNS,> 100 µM
same,TGI,UACC-257 melanoma,> 100 µM
same,TGI,UO-31 renal,96.8 µM
